This passage reports Log10GI50, Log10LC50 and Log10TGI50 results from patent publication US20150218212A1, “FLUORINATED EPOXYKETONE-BASED TETRAPEPTIDE COMPOUNDS AND USES THEREOF AS PROTEASOME INHIBITORS” (FLUORINOV PHARMA INC., priority 2012, published 2015).

What all share (type): cell-based, human
One assay has as its system HOP-92. As to the kind of experiment: NCI screening panel, HOP-92 (Non-Small Cell Lung Cancer). As to the method:
(§1) Representative compounds of Formula I were screened using the National Cancer Institute (NCI) screening panel, which consists of a panel of human tumor cell lines, representing leukemia, melanoma, and cancers of the lung, colon, ovary, breast, prostate and renal system.
(§2) After 24 h, two plates of each cell line are fixed in situ with TCA, to represent a measurement of the cell population for each cell line at the time of drug addition (Tz). Experimental drugs are solubilised in dimethyl sulfoxide at 400-fold the desired final maximum test concentration and stored frozen prior to use. At the time of drug addition, an aliquot of frozen concentrate is thawed and diluted to twice the desired final maximum test concentration with complete medium containing 50 μg/mL gentamicin. Additional four, 10-fold or ½ log serial dilutions are made to provide a total of five drug concentrations plus control. Aliquots of 100 μl of these different drug dilutions are added to the appropriate microtiter wells already containing 100 μl of medium, resulting in the required final drug concentrations.
(§3) Following drug addition, the plates are incubated for an additional 48 h at 37° C., 5% CO2, 95% air, and 100% relative humidity. For adherent cells, the assay is terminated by the addition of cold TCA (trichloroacetic acid). Cells are fixed in situ by the gentle addition of 50 μl of cold 50% (w/v) TCA (final concentration, 10% TCA) and incubated for 60 minutes at 4° C. The supernatant is discarded, and the plates are washed five times with tap water and air dried. Sulforhodamine B (SRB) solution (100 μl) at 0.4% (w/v) in 1% acetic acid is added to each well, and plates are incubated for 10 minutes at room temperature. After staining, unbound dye is removed by washing five times with 1% acetic acid and the plates are air dried. Bound stain is subsequently solubilised with 10 mM trizma base, and the absorbance is read on an automated plate reader at a wavelength of 515 nm. For suspension cells, the methodology is the same except that the assay is terminated by fixing settled cells at the bottom of the wells by gently adding 50 μl of 80% TCA (final concentration, 16% TCA). Using the seven absorbance measurements [time zero, (Tz), control growth, (C), and test growth in the presence of drug at the five concentration levels (Ti)], the percentage growth is calculated at each of the drug concentrations levels. Percentage growth inhibition is calculated as: [(Ti−Tz)/(C−Tz)]×100 for concentrations for which Ti>/=Tz and [(Ti−Tz)/Tz]×100 for concentrations for which Ti<Tz.
(§4) Three dose response parameters are calculated for each experimental agent. Growth inhibition of 50% (GI50) is calculated from [(Ti−Tz)/(C−Tz)]×100=50, which is the drug concentration resulting in a 50% reduction in the net protein increase (as measured by SRB staining) in control cells during the drug incubation. The drug concentration resulting in total growth inhibition (TGI) is calculated from Ti=Tz. The LC50 (concentration of drug resulting in a 50% reduction in the measured protein at the end of the drug treatment as compared to that at the beginning) indicating a net loss of cells following treatment is calculated from [(Ti−Tz)/Tz]×100=−50. Values are calculated for each of these three parameters if the level of activity is reached. However, if the effect is not reached or is exceeded, the value for that parameter is expressed as greater or less than the maximum or minimum concentration tested.

Another assay has as its system CCRF-CEM. As to the kind of experiment: NCI screening panel, CCRF-CEM (Leukemia). The method, then: as §1, §2, §3, §4
Another assay has as its system PC-3. As to the kind of experiment: NCI screening panel, PC-3 (Prostate Cancer). As to the method: as §1, §2, §3, §4
For the next assay, the system named is NCI-H522. As to the kind of experiment: NCI screening panel, NCI-H522 (Non-Small Cell Lung Cancer). The method, then: as §1, §2, §3, §4
A further assay relates to SNB-19. As to the kind of experiment: NCI screening panel, SNB-19 (CNS Cancer). As to the method: as §1, §2, §3, §4
The subject of another assay is DU-145. As to the kind of experiment: NCI screening panel, DU-145 (Prostate Cancer). As to the method:
as §1, §2, §3, §4

As for `CC(C)C[C@H](NC(=O)[C@H](COC(F)F)NC(=O)[C@H](COC(F)F)NC(=O)[C@H](CCc1ccccc1)NC(=O)CN1CCOCC1)C(=O)[C@@]1(C)CO1` [Example 7, (2S)-N-[(1S)-1-(difluoromethoxymethyl)-2-[[(1S)-1-(difluoromethoxymethyl)-2-[[(1S)-3-methyl-1-[(2R)-2-methyloxirane-2-carbo-nyl]butyl]amino]-2-oxo-ethyl]amino]-2-oxo-ethyl]-2-[(2-morpholinoacetyl)amino]-4-phenyl-butanamide], the Log10GI50 in the assay with HOP-92 was −7.71; in the assay on CCRF-CEM, <−8.00; in the assay with PC-3, −7.49; in the assay on NCI-H522, −7.88; in the assay with SNB-19 it was −7.14; in the assay on DU-145, −7.42. In addition, the Log10LC50 is reported as −6.54 with HOP-92; >−4.00 with CCRF-CEM; −5.41 in the assay with PC-3; −4.62 with NCI-H522; >−4.00 with SNB-19; >−4.00 with DU-145. In addition, the Log10TGI50 with HOP-92 is given as −7.28; in the assay with CCRF-CEM it was >−4.00; in the assay on PC-3, −6.86; in the assay with NCI-H522 it was −7.20; in the assay on SNB-19, >−4.00; in the assay on DU-145, −4.75.
For the compound `CC(C)C[C@H](NC(=O)[C@H](COC(F)F)NC(=O)CN1CCOCC1)C(=O)N[C@@H](Cc1ccccc1)C(=O)N[C@@H](CC(C)C)C(=O)[C@@]1(C)CO1` [Example 2, (2S)-N-[(1S)-1-benzyl-2-[[(1S)-3-methyl-1-[(2R)-2-methyloxirane-2-carbonyl]butyl]-amino]-2-oxo-ethyl]-2-[[(2S)-3-(difluoromethoxy)-2-[(2-morpholinoacetyl)amino]propanoyl]amino]-4-methyl-pentanamide], the Log10GI50 with PC-3 is reported as −7.57; in the assay on NCI-H522, <−8.00; in the assay on SNB-19 it was −7.18; with DU-145, −7.34. In addition, the Log10LC50 with PC-3 is listed as −5.62; in the assay with SNB-19, >−4.00; with DU-145 it was >−4.00. Further, the Log10TGI50 in the assay on PC-3 was −6.93; with NCI-H522 it was −7.43; in the assay on SNB-19, >−4.00; in the assay with DU-145, −5.00.
Take `CC(C)C[C@H](NC(=O)[C@H](COC(F)F)NC(=O)[C@H](COC(F)F)NC(=O)[C@H](COC(F)F)NC(=O)CN1CCOCC1)C(=O)[C@@]1(C)CO1` [Example 17, (2S)-3-(difluoromethoxy)-N-[(1S)-1-(difluoromethoxymethyl)-2-[[(1S)-1-(difluoro-methoxymethyl)-2-[[(1S)-3-methyl-1-[(2R)-2-methyloxirane-2-carbonyl]butyl]amino]-2-oxo-ethyl]amino]-2-oxo-ethyl]-2-[(2-mor-pholinoacetyl)amino]-propanamide]: the Log10GI50 was −7.56 in the assay with HOP-92; −7.39 in the assay with CCRF-CEM; −6.76 in the assay on PC-3; −7.40 with NCI-H522; −7.16 in the assay on SNB-19; −7.07 with DU-145. Besides, the Log10LC50 in the assay with HOP-92 is given as −6.02; with CCRF-CEM, >−4.00; in the assay on PC-3, −5.02; in the assay with NCI-H522, −5.25; with SNB-19, >−4.00; in the assay on DU-145 it was >−4.00. The Log10TGI50 in the assay on HOP-92 is reported as −7.01; in the assay with CCRF-CEM it was >−4.00; in the assay on PC-3 it was −6.12; in the assay on NCI-H522, −6.64; in the assay on SNB-19, −4.67; with DU-145 it was −4.84.
Turning to `CC(C)C[C@H](NC(=O)[C@H](COC(F)F)NC(=O)CN1CCOCC1)C(=O)N[C@@H](COC(F)F)C(=O)N[C@@H](Cc1ccccc1)C(=O)[C@@]1(C)CO1` [Example 4, (2S)-N-[(1S)-2-[[(1S)-1-benzyl-2-[(2R)-2-methyloxiran-2-yl]-2-oxo-ethyl]amino]-1-(difluoromethoxymethyl)-2-oxo-ethyl]-2-[[(2S)-3-(difluoromethoxy)-2-[(2-mor-pholinoacetyl)amino]propanoyl]amino]-4 methyl-pentanamide], the Log10GI50 with HOP-92 is listed as −7.59; in the assay with CCRF-CEM, <−8.00; in the assay on PC-3, −7.18; in the assay on NCI-H522, −7.75; in the assay on SNB-19 it was −7.14; with DU-145 it was −7.19. Also, the Log10LC50 was −6.24 with HOP-92; >−4.00 in the assay with CCRF-CEM; −4.68 in the assay with PC-3; −6.06 in the assay on NCI-H522; >−4.00 in the assay with SNB-19; >−4.00 in the assay with DU-145. The Log10TGI50 in the assay with HOP-92 is given as −7.15; with CCRF-CEM, >−4.00; in the assay with PC-3, −6.40; in the assay on NCI-H522 it was −7.11; in the assay with SNB-19, >−4.00; in the assay with DU-145 it was −4.91.
`CC(C)C[C@H](NC(=O)[C@H](Cc1ccccc1)NC(=O)[C@H](COC(F)F)NC(=O)[C@H](COC(F)F)NC(=O)CN1CCOCC1)C(=O)[C@@]1(C)CO1` [Example 11, (2S)-2-[[(2S)-3-(difluoromethoxy)-2-[[(2S)-3-(difluoromethoxy)-2-[(2-morpholinoacetyl)-amino]propanoyl]amino]propanoyl]amino]-N-[(1S)-3-methyl-1-[(2R)-2-methyloxirane-2-carbonyl]butyl]-3-phenyl-propanamide]: the Log10GI50 with HOP-92 is −7.62; with CCRF-CEM, <−8.00; in the assay with PC-3, −7.32; with NCI-H522, −7.72; in the assay with SNB-19, −7.20; in the assay with DU-145, −7.31. The Log10LC50 in the assay on HOP-92 is given as −6.26; in the assay on CCRF-CEM, >−4.00; in the assay with PC-3 it was >−4.00; in the assay with NCI-H522, >−4.00; in the assay on SNB-19, >−4.00; in the assay on DU-145, >−4.00. For the same compound, the Log10TGI50 in the assay with HOP-92 is given as −7.15; in the assay on CCRF-CEM, −4.57; with PC-3, −6.51; in the assay on NCI-H522 it was −7.15; in the assay with SNB-19, >−4.00; in the assay with DU-145 it was −5.94.
Regarding `CC(C)C[C@H](NC(=O)[C@H](COC(F)F)NC(=O)CN1CCOCC1)C(=O)N[C@@H](Cc1ccccc1)C(=O)N[C@@H](Cc1ccccc1)C(=O)[C@@]1(C)CO1` [Example 3, (2S)-N-[(1S)-1-benzyl-2-[[(1S)-1-benzyl-2-[(2R)-2-methyloxiran-2-yl]-2-oxo-ethyl]amino]-2-oxo-ethyl]-2-[[(2S)-3-(difluoromethoxy)-2-[(2-morpholinoacetyl)-amino]propanoyl]amino]-4-methyl-pentan-amide], the Log10GI50 with CCRF-CEM is on record as <−8.00; with PC-3 it was −7.73; in the assay on NCI-H522 it was <−8.00; in the assay with SNB-19, −7.66; with DU-145 it was <−8.00. The Log10LC50 was >−4.00 with CCRF-CEM; −6.09 in the assay with PC-3; −6.18 in the assay with NCI-H522; >−4.00 in the assay on SNB-19; −4.48 with DU-145. The Log10TGI50 is on record as −4.88 with CCRF-CEM; −7.04 in the assay on PC-3; −7.55 with NCI-H522; −4.54 in the assay on SNB-19; −5.79 in the assay on DU-145.
